pIC50: −log10 of the molar value.
Assays:
MAT2A homodimer = molecular target: T1, MAT2A homodimer (Homo sapiens, UniProt P31153); test: MAT2A inhibition (biochemical, liberated phosphate, PiColorLock Gold); details: recombinant MAT2A homodimer; IC50 bin with Max Inh.; read-out: Enzyme Inhibition Bin
T1 construct: inferred from Ni sepharose purification with imidazole elution; made in house; host or cells: Sf9 insect cells, baculovirus (Bac to Bac, pFASTBAC1)
Procedure, shortened: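 Baculovirus/Sf9-expressed, Ni-purified MAT2A (4 μg/mL) preincubated with compound 60 min at 25 °C in Tris pH 8.0/KCl/MgCl2 buffer. Reaction started with 500 μM ATP and 400 μM L-methionine (substrate-mix concentrations), run 60 min at 25 °C. Phosphate measured colorimetrically against a phosphate standard curve to give IC50.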

[1] = system: SAM in HCT116 human colon carcinoma cell line with MTAP gene deleted (MTAP −/−); test: Cellular assay of target engagement (SAM), LC-MS/MS, 72 hrs; type: cell-based; details: HCT-116, IC50 bin with Max Inh., read-out: Cell 72 h SAM Inhibition (MTAP −/−)
Method: Measurement of MAT2A activity in cells was made by direct quantitation of the abundance of the product of its enzymatic activity, SAM. Cancer cells were treated with candidate MAT2A inhibitors for a suitable incubation period, and the cells were then lysed using a reagent which quenched any further enzyme activity. Soluble metabolites including SAM were collected and SAM itself was directly measured from the lysate using quantitative LC-MS/MS.
A typical assay was performed using an HCT116 human colon carcinoma cell line which was genetically engineered to delete the MTAP gene (commercially available from Horizon Discovery). This cell line was utilized because it was determined that loss of the MTAP gene predicts sensitivity to MAT2A inhibitors. Cells were plated in 96-well dishes at appropriate cell density. Following 24 hours, cells were then treated with the candidate MAT2A inhibitor. Prior to addition to cells, the compound was first serially diluted in 100% DMSO, typically as a 3-fold serial dilution starting at 500× top dose with 10 dose points including DMSO only control. Compound was then transferred to a working stock plate in cell culture media by adding 5 μL of compound in DMSO to 495 μL of cell culture media. This working stock was then added to cells via a further 5-fold dilution, by adding 25 μL of working stock to 100 μL of cells in culture media. Following compound addition, cells were incubated at 37° C./5% CO2 for 72 hrs.
To quantitate SAM levels following compound treatment, cells were gently washed once in ammonium carbonate buffer (75 mM at pH 7.4), placed on dry ice, and lysed with metabolite extraction buffer (80% cold methanol and 20% water (v/v) with acetic acid at 1M final concentration with 200 ng/mL deuterated d3-SAM as internal control). Following centrifugation at 4° C. at 3,200 rpm for 30 minutes, the supernatant was collected and stored at −80° C. until analysis by Liquid Chromatography with tandem Mass Spectrometry (LC-MS/MS). LC-MS/MS analysis was performed using an API6500 Mass Spectrometer (Sciex, Framingham, Mass., USA) operating in positive ion spray mode and equipped with a Waters UPLC Acquity (Waters, Milford, Mass., USA) BEH Amide column. Multiple Reaction Monitoring data was acquired for SAM and the d3-SAM standard, using a mass transition pair at m/z 399.2→250.1 and 402.2→250.1, respectively. In a typical LC-MS/MS analysis, the initial flow rate was 0.5 ml/min of 25% mobile phase A (acetonitrile and water at 5:95 (v/v) with 1% formic acid and 10 mM ammonium acetate) and 75% mobile phase B (acetonitrile and water at 95:5 (v/v) with 1% formic acid and 10 mM ammonium acetate), 0.2-0.5 minutes with 75%-35% mobile phase B, 25%-65% mobile phase A, at 0.5 min 65% mobile phase A and 35% mobile phase B, 1.0-1.1 minutes with 35%-75% mobile phase B, 65%-25% mobile phase A, at 1.1 min 25% mobile phase A and 75% mobile phase B with a total run time of 1.5 minutes.
Specific compounds disclosed herein were tested in the foregoing assay and they were determined to inhibit SAM with an IC50. See, Table 1 below.

HCT116 MTAP−/− = test: Inhibition of cellular proliferation, 4 days, Cell Titer Glo, HCT116 MTAP−/−; type: cell-based; details: Homo sapiens, HCT-116, 96 h, IC50 bin with Max Inh., read-out: 4 Day Relative Growth Inhibition (MTAP −/−)
Method: (§1) Test compound impact on cancer cell growth was assessed by treating cancer cells with compound for 4 days and then measuring proliferation using an ATP-based cell proliferation readout (Cell Titer Glo, Promega Corporation).
(§2) In a typical assay an isogenic pair of HCT116 human colon carcinoma cell lines which vary only in MTAP deletion status (HCT116 MTAP+/+ and HCT116 MTAP−/−) were plated in 96-well dishes at appropriate cell density. Following 24 hours, cells were then treated with the candidate MAT2A inhibitor. Prior to addition to cells, the compound was first serially diluted in 100% DMSO, typically as a 3-fold serial dilution starting at 500× top dose with 10 dose points including DMSO only control. Compound was then transferred to a working stock plate in cell culture media by adding 5 μL of compound in DMSO to 495 μL of cell culture media. This working stock was then added to cells via a further 5-fold dilution, by adding 25 μL of working stock to 100 μL of cells in culture media. Following compound addition, cells were incubated at 37° C./5% CO2 for 4 days.
(§3) To measure inhibition of cellular proliferation, cells were allowed to equilibrate to room temperature for 30 minutes, and were then treated with 125 μL of Cell Titer Glo reagent. The plate was then covered with aluminum foil and shaken for 15 minutes to ensure complete mixing and full cell lysis. Luminescent signal was then measured using a plate-based luminometer Veritas version 1.9.2 using ATP standard curve to confirm assay reproducibility from run to run. This luminescence measure was converted to a proliferation index by subtracting from each data point the ATP luminescence signal measured from a bank (no cells) well and dividing by the ATP luminescence signal measured in 0.2% DMSO control well adjusted for signal in blank well. Compound activity was then represented as a percentage change in proliferation relative to a within-plate DMSO control against log 10 of compound concentration in molar (M) units.
(§4) Specific compounds disclosed herein were tested in the foregoing assay and they were determined to inhibit cellular proliferation with an IC50. See, Table 1 below.

HCT116 MTAP+/+ = test: Inhibition of cellular proliferation, 4 days, Cell Titer Glo, HCT116 MTAP+/+; type: cell-based; details: Homo sapiens, HCT-116, 96 h, IC50 bin with Max Inh., read-out: 4 Day Relative Growth Inhibition (MTAP +/+)
Method: as §1, §2, §3, §4

T1 sequence (P31153 whole entry): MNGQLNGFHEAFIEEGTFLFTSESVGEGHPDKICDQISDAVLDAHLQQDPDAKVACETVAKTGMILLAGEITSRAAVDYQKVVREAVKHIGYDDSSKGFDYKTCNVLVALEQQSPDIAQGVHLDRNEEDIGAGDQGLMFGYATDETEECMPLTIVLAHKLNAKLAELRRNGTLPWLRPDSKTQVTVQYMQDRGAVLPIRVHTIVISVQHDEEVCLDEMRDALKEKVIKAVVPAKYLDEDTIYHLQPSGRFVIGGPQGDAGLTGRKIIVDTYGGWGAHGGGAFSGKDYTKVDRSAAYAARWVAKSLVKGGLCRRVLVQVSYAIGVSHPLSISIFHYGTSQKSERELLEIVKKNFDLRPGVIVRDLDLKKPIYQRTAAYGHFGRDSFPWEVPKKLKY

Structure (SMILES) | pIC50 (MAT2A homodimer) | pIC50 [1] | pIC50 (HCT116 MTAP−/−) | pIC50 (HCT116 MTAP+/+)
CNC(=O)c1ccc(-c2c(=O)n(-c3ccc4nn(C)cc4c3)nc3ccn(CC4CC4)c23)cn1 [Example 144, 5-(5-(cyclopropylmethyl)-2-(2-methyl-2H-indazol-5-yl)-3-oxo-3,5-dihydro-2H-pyrrolo[3,2-c]pyridazin-4-yl)-N-methylpicolinamide] | 6.00 to 7.00 | 6.00 to 7.00 | < 6.00 | < 6.00
CNC(=O)c1cn(CC2CC2)c2c(-c3ccc(C)nc3)c(=O)n(-c3ccc4nn(C)cc4c3)nc12 [Example 177, 5-(cyclopropylmethyl)-N-methyl-2-(2-methyl-2H-indazol-5-yl)-4-(6-methylpyridin-3-yl)-3-oxo-3,5-dihydro-2H-pyrrolo[3,2-c]pyridazine-7-carboxamide] | > 7.00 | > 7.00 | 6.00 to 7.00 | < 6.00
COc1ccc(-c2c(=O)n(-c3ccc4nn(C)cc4c3)nc3ccn(CC4CC4)c23)cn1 [Example 110, 5-(cyclopropylmethyl)-4-(6-methoxypyridin-3-yl)-2-(2-methyl-2H-indazol-5-yl)-2,5-dihydro-3H-pyrrolo[3,2-c]pyridazin-3-one] | > 7.00 | > 7.00 | > 7.00 | < 6.00
Cn1cc2cc(-n3nc4ccn(CC5CC5)c4c(-c4ccc(C(N)=O)nc4)c3=O)ccc2n1 [Example 155, 5-(5-(cyclopropylmethyl)-2-(2-methyl-2H-indazol-5-yl)-3-oxo-3,5-dihydro-2H-pyrrolo[3,2-c]pyridazin-4-yl)picolinamide] | > 7.00 | 6.00 to 7.00 | 6.00 to 7.00 | < 6.00
Cn1cc2cc(-n3nc4ccn(CCC(F)(F)F)c4c(-c4ccc(OC(F)F)cc4)c3=O)ccc2n1 [Example 105, 4-(4-(difluoromethoxy)phenyl)-2-(2-methyl-2H-indazol-5-yl)-5-(3,3,3-trifluoropropyl)-2,5-dihydro-3H-pyrrolo[3,2-c]pyridazin-3-one] | > 7.00 | > 7.00 | > 7.00 | < 6.00
Cn1cc2cc(-n3nc4c(C#N)cn(C[C@@H]5CC5(F)F)c4c(-c4ccc(C5CC5)nc4)c3=O)ccc2n1 [Example 268, (S)-4-(6-cyclopropylpyridin-3-yl)-5-((2,2-difluorocyclopropyl)methyl)-2-(2-methyl-2H-indazol-5-yl)-3-oxo-3,5-dihydro-2H-pyrrolo[3,2-c]pyridazine-7-carbonitrile] | > 7.00 | > 7.00 | > 7.00 | < 6.00

Results, then the compound that gave them:

pIC50 (MAT2A homodimer) | pIC50 [1] | pIC50 (HCT116 MTAP−/−) | pIC50 (HCT116 MTAP+/+) | Structure (SMILES)
> 7.00 | > 7.00 | > 7.00 | < 6.00 | COc1ccc(-c2c(=O)n(-c3ccc4nc(C)n(C)c4c3)nc3ncn(CC4CC4)c23)cc1 [Example 195, 5-(cyclopropylmethyl)-2-(1,2-dimethyl-1H-benzo[d]imidazol-6-yl)-4-(4-methoxyphenyl)-2,5-dihydro-3H-imidazo[4,5-c]pyridazin-3-one]
> 7.00 | > 7.00 | > 7.00 | < 6.00 | Cn1cc2cc(-n3nc4ccn(CC5CC5)c4c(-c4ccc(C5CC5)cc4)c3=O)ccc2n1 [Example 150, 5-(cyclopropylmethyl)-4-(4-cyclopropylphenyl)-2-(2-methyl-2H-indazol-5-yl)-2,5-dihydro-3H-pyrrolo[3,2-c]pyridazin-3-one]
> 7.00 | 6.00 to 7.00 | < 6.00 | < 6.00 | Nc1ccc(-n2nc3ccn(CC4CC4)c3c(-c3ccc(OC(F)F)cc3)c2=O)cc1 [Example 228, 2-(4-aminophenyl)-5-(cyclopropylmethyl)-4-(4-(difluoromethoxy)phenyl)-2,5-dihydro-3H-pyrrolo[3,2-c]pyridazin-3-one]
> 7.00 | > 7.00 | > 7.00 | > 7.00 | Cc1nc2ccc(-n3nc4ccn(CC5CC5)c4c(-c4ccc(C5CC5)nc4)c3=O)cc2n1C [Example 156, 5-(cyclopropylmethyl)-4-(6-cyclopropylpyridin-3-yl)-2-(1,2-dimethyl-1H-benzo[d]imidazol-6-yl)-2,5-dihydro-3H-pyrrolo[3,2-c]pyridazin-3-one]
> 7.00 | > 7.00 | > 7.00 | 6.00 to 7.00 | COc1ccc(-n2nc3ccn(CC4CC4)c3c(-c3ccc(OC(F)F)cc3)c2=O)cc1 [Example 229, 5-(cyclopropylmethyl)-4-(4-(difluoromethoxy)phenyl)-2-(4-methoxyphenyl)-2,5-dihydro-3H-pyrrolo[3,2-c]pyridazin-3-one]
> 7.00 | > 7.00 | > 7.00 | 6.00 to 7.00 | O=c1c(-c2ccc(OC(F)F)cc2)c2c(ccn2CC2CC2)nn1-c1ccc2ncccc2c1 [Example 225, 5-(cyclopropylmethyl)-4-(4-(difluoromethoxy)phenyl)-2-(quinolin-6-yl)-2,5-dihydro-3H-pyrrolo[3,2-c]pyridazin-3-one]
> 7.00 | > 7.00 | > 7.00 | > 7.00 | Cc1cn(CC2CC2)c2c(-c3ccc(C4CC4)nc3)c(=O)n(-c3ccc4nn(C)cc4c3)nc12 [Example 234, 5-(cyclopropylmethyl)-4-(6-cyclopropylpyridin-3-yl)-7-methyl-2-(2-methyl-2H-indazol-5-yl)-2,5-dihydro-3H-pyrrolo[3,2-c]pyridazin-3-one]
> 7.00 | > 7.00 | > 7.00 | < 6.00 | Cn1nc2ccc(-n3nc4ccn(CC5CC5)c4c(-c4ccc(C5CC5)nc4)c3=O)cc2c1C(F)(F)F [Example 241, 5-(cyclopropylmethyl)-4-(6-cyclopropylpyridin-3-yl)-2-(2-methyl-3-(trifluoromethyl)-2H-indazol-5-yl)-2,5-dihydro-3H-pyrrolo[3,2-c]pyridazin-3-one]
